{"source": "paper PMC8584989", "about": "(International Journal of Molecular Sciences, 2021)", "key": {"[1]": {"biological_target": "T1, CYP1A2 (Homo sapiens, UniProt P05177)", "T1 construct": "purchased Thermo Fisher Scientific", "T1 sequence (P05177 2-516 limits assumed)": "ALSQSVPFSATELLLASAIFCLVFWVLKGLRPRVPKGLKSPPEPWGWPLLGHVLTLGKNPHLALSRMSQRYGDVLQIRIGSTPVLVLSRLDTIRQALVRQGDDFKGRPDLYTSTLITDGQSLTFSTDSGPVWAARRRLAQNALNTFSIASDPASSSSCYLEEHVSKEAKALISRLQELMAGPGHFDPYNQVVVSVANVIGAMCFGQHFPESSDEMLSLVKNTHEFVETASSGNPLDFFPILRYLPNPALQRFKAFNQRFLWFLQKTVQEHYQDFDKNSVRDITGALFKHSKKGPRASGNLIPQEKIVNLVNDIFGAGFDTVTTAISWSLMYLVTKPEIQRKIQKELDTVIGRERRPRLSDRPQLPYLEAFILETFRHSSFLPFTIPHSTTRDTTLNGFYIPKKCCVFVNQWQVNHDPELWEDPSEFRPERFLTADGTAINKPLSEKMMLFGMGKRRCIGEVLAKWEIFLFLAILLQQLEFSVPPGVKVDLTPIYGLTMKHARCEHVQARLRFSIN", "experiment": "Vivid CYP450 Screening Kit, recombinant CYP1A2", "type": "in vitro ADME", "experimental": "(§1) CYP inhibitory assay was performed using Vivid CYP450 screening kit as described previously. The kits consist of microsomal fraction containing human CYP isoforms, human CYP reductase and in several cases cytochrome b5. Experiments were performed following the manufacturer’s protocol on black 96-well plates using kinetic mode. […] Then, the master mix (CYP isoenzyme with an NADPH regeneration system in buffer) was added in each well and plate was pre-incubated for 10 min. The reaction was started with the mixture of NADP^+ and Vivid substrate and the fluorescence of samples was measured in 1 min interval for 60 min using an Infinite M200 Pro microplate reader (Tecan, Männedorf, Switzerland). Data from linear phase (15 min) were used for data evaluation."}, "[2]": {"biological_target": "T2, CYP2C8 (Homo sapiens, UniProt P10632)", "T2 construct": "purchased Thermo Fisher Scientific", "T2 sequence (P10632 whole entry)": "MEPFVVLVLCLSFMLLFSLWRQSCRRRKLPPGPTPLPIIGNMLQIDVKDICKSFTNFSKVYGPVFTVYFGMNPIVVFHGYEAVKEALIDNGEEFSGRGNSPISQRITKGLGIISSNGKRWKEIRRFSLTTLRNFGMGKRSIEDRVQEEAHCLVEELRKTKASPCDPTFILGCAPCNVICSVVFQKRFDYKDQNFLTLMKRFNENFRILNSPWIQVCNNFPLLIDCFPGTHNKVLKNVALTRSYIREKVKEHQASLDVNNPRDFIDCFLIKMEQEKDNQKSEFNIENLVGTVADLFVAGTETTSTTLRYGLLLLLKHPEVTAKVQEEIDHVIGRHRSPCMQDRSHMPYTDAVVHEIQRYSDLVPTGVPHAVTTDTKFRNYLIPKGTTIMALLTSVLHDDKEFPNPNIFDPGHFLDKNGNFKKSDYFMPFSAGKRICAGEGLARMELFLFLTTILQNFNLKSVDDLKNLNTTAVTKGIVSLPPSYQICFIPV", "experiment": "Vivid CYP450 Screening Kit, recombinant CYP2C8", "type": "in vitro ADME", "details": "recombinant enzyme; read-out: CYP2C8 inhibition IC50", "experimental": "as §1"}, "[3]": {"experiment": "XTT proliferation / drug combination assay", "details": "human"}, "[4]": {"biological_target": "ABCB1 (Homo sapiens, UniProt P08183)", "sequence (P08183 whole entry)": "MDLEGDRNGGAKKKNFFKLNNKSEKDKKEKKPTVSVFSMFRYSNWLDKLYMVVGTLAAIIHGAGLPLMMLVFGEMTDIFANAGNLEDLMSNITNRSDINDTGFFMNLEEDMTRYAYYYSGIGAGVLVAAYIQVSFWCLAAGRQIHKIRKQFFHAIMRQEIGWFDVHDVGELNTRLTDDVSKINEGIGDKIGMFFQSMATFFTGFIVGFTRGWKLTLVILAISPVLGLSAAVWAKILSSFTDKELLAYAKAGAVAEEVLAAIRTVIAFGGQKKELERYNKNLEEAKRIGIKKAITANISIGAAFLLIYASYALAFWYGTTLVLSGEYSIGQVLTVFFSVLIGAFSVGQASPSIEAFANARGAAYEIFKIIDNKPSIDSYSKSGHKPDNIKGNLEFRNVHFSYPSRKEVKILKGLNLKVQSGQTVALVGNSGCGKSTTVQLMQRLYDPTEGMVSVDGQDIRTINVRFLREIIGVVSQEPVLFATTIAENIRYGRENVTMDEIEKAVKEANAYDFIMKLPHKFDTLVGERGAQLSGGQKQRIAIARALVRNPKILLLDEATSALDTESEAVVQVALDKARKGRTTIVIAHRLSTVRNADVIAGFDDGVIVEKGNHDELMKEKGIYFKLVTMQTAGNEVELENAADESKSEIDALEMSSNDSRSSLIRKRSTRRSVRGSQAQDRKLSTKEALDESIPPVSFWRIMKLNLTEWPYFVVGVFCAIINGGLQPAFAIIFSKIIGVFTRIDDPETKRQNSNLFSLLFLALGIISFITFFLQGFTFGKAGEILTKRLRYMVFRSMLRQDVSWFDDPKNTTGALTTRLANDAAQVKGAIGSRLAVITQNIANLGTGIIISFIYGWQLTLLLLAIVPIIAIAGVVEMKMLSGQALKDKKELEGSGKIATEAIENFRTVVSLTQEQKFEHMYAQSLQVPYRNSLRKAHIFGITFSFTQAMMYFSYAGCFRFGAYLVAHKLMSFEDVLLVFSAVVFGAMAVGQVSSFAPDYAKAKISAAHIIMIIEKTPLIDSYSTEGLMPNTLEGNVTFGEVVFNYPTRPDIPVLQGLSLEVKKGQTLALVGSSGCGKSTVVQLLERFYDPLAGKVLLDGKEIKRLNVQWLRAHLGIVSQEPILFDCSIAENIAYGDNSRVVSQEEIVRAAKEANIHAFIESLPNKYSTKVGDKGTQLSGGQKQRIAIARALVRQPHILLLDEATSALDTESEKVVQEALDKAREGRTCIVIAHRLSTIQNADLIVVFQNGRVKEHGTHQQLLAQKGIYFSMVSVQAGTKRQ", "details": "DI study in healthy subjects; cited from earlier work"}, "[5]": {"test_system": "HL60-ABCC1 cells", "experiment": "XTT proliferation assay (comparative viability)", "type": "cell-based", "details": "single drug, 48 h", "experimental": "These colorimetric assays were used in various studies presented in this paper (prior induction studies, MDR reversal experiments and comparative viability assays) and were performed as reported previously. […] In MTT experiments, cells were seeded on a 96-well culture plate at densities (in number of cells/well) of 1.3 × 10^4 for MDCKII-par, MDCKII-ABCB1 and MDCKII-ABCG2; 1.2 × 10^4 for A431-par, A431-ABCB1, A431-ABCG2 and A431-ABCC1; 1.2 × 10^4 for NCI-H1299; 1.0 × 10^4 for A459; 2.0 × 10^4 for Caco-2; 5.0 × 10^4 for LS174T; and 1.0 × 10^4 for primary NSCLC explants. On the other hand, for XTT cells were seeded with densities 2.0 × 10^4 for HL60-par, HL60-ABCB1, HL60-ABCG2 and HL60-ABCC1 cells/well on 96-well plates. […] Following 48 h incubation with drugs, Opti-MEM solutions of MTT or XTT (1 mg/mL) with phenazine methosulfate solution (7.50 μg/mL; only for XTT) was added and the cells were incubated for 1 h with the exception of HL60s that were incubated for 5 h."}, "[6]": {"experiment": "XTT proliferation / drug combination assay", "details": "human", "remark": "listed apart in the source"}, "[7]": {"biological_target": "T3, CYP2D6 (Homo sapiens, UniProt P10635)", "T3 construct": "purchased Thermo Fisher Scientific", "T3 sequence (P10635 whole entry)": "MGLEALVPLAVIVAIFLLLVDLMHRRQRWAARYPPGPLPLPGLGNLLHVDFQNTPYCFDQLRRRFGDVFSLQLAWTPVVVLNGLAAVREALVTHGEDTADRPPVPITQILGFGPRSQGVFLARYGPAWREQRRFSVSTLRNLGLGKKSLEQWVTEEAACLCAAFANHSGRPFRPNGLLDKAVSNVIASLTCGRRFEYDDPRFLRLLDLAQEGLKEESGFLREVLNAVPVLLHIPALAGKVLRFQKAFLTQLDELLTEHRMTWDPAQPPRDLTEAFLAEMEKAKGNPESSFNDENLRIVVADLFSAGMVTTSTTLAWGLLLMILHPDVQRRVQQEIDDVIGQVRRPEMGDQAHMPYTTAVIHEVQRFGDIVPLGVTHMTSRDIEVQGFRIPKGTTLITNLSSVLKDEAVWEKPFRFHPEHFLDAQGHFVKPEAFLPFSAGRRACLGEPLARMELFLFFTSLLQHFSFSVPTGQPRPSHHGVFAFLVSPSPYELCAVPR", "experiment": "Vivid CYP450 Screening Kit, recombinant CYP2D6", "type": "in vitro ADME", "experimental": "as §1"}, "[8]": {"details": "recommended dosing of 500 mg daily; read-out: steady state Cmax; cited from earlier work"}, "[9]": {"test_system": "KB drug resistant cell lines", "details": "in vitro KB drug resistant cell lines; cited from earlier work"}, "[10]": {"test_system": "patient-derived NSCLC explants", "experiment": "Daunorubicin and mitoxantrone accumulation in primary NSCLC explants", "type": "cell-based, human", "details": "six primary cultures; predominantly those with higher transporters' expression levels", "text": "Tumor biopsies were donated by NSCLC patients at the Department of Cardiac Surgery, University Hospital Hradec Králové following written informed consent approved by the University Hospital Ethics Committee (study no. 202002 […]). Subjects' characteristics are shown in Supplementary Materials (Table S1). The NSCLC samples were collected immediately after the lung lobectomy and excision of tumor by the pathologist, which was followed by the isolation of cancer cells using a modified procedure based on previously published protocols. The tumor tissues were minced in small pieces around 2-5 mm in diameter using a scalpel. To liberate the cells from tissues, the minced pieces were transferred into the prewarmed 0.1% collagenase in 1 × MEM and placed in the water bath for 30 min. Following the incubation, BSA in MEM was added and cells were sieved through a 40 μm-sized cell strainer. Then, the solution was centrifuged at 200× g for 5 min. The pellet was resuspended with a BSA solution in MEM. […] The cells there trypsinized on ice, resuspended with 2% FBS in cold PBS solution and then fluorescence was detected using flow cytometer (BD FACSCanto II, Allschwil, Switzerland). […] For data presentation, the ratios of relative fluorescence units (RFUs) from treated samples to RFUs from vehicle-treated (control) cells were computed generating “relative substrate accumulation”."}}, "data": [{"molecule": "CN1CCC(COc2cnc(-c3cccc(Cn4nc(-c5cccc(C#N)c5)ccc4=O)c3)nc2)CC1", "note": "[tepotinib, Tepotinib]", "values": [{"measurement": "IC50", "setting": "[1]", "value": "> 50", "unit": "µM"}, {"measurement": "IC50", "setting": "[2]", "value": 20.4, "unit": "µM"}, {"measurement": "IC50 at 48 h", "setting": "[3]", "value": 19.4, "unit": "µM"}, {"measurement": "Effect on AUC and Cmax of ABCB1 substrate dabigatran etexilate", "setting": "[4]", "value": "significantly increased AUC and Cmax"}, {"measurement": "IC50", "setting": "[5]", "value": 20, "unit": "µM"}, {"measurement": "IC50 at 48 h", "setting": "[6]", "value": 19.6, "unit": "µM"}, {"measurement": "IC50", "setting": "[7]", "value": "> 50", "unit": "µM"}, {"measurement": "Cmax", "setting": "[8]", "value": 2620, "unit": "nM"}, {"measurement": "Effect on anticancer effect of paclitaxel and vincristine", "setting": "[9]", "value": "potentiate the anticancer effect of paclitaxel and vincristine"}, {"measurement": "Effect on accumulation of mitoxantrone and daunorubicin", "setting": "[10]", "value": "significantly increased the accumulation of model anticancer drugs in some of the primary samples"}]}]}
